Active and inactive are the calls of the source. How the calls were made is not given here.
Columns and labels:
[1] = compound effect on polymyxin resistance, Typhi, OD600 (AID 2612); settings: Salmonella Typhi WT vs phoP-, polymyxin IC50 shift, OD600 24 h, at 150 µM; for polymyxin IC50 shift difference (WT - phoP-): stronger effect = higher value; for IC50 shift: measured here: polymyxin IC50 shift
[2] = tested on: Salmonella Typhi WT vs phoP-, polymyxin IC50 shift, OD600 24 h; experiment: as above

In the case of COc1c(N2CCN(C(=S)NCc3ccccc3)C(C)C2)c(F)cc2c(=O)c(C(=O)O)cn(C3CC3)c12 (centres undefined), the polymyxin IC50 shift difference (WT - phoP-) [1] is reported as -3.42 (inactive), the IC50 shift ([1]; WT strain) is reported as -4.5 and the IC50 shift ([1]; phoP- strain) is reported as -1.08. For the same compound, the IC50 ([2]; WT polymyxin IC50 at 150 uM) was 7.25 µM and the IC50 ([2]; phoP- polymyxin IC50 at 150 uM) was 3.83 µM.
Compound O=C1C2=C(Nc3ccccc3SC2c2ccco2)c2ccccc21 (centres undefined) has an IC50 shift ([1]; WT strain) of 1.28, an IC50 shift ([1]; phoP- strain) of -24.4 and an IC50 [2] of 4 µM. The IC50 ([2]; WT polymyxin IC50 at 150 uM) was 1.47 µM and the IC50 ([2]; phoP- polymyxin IC50 at 150 uM) was 27.4 µM.
For CCn1cc(C(=O)O)c(=O)c2cc(F)c(N3CCN(C(=S)NC(=O)c4ccccc4Cl)CC3)cc21, the polymyxin IC50 shift difference (WT - phoP-) [1] was -3.77 (inactive), the IC50 shift ([1]; WT strain) was -1.35 and the IC50 shift ([1]; phoP- strain) was 2.42. It also gave an IC50 ([2]; WT polymyxin IC50 at 150 uM) of 3.45 µM and an IC50 ([2]; phoP- polymyxin IC50 at 150 uM) of 0.0339 µM.
For O=C(Nc1ccc(Cl)cc1)N1CCCN(Cc2ccccc2F)C1, the polymyxin IC50 shift difference (WT - phoP-) [1] was -11.9 (inactive), the IC50 shift ([1]; WT strain) was -12.1 and the IC50 shift ([1]; phoP- strain) was -0.267. It also gave an IC50 ([2]; WT polymyxin IC50 at 150 uM) of 14.9 µM and an IC50 ([2]; phoP- polymyxin IC50 at 150 uM) of 3.07 µM.
With S=C(NCc1ccc(Cl)cc1)Nc1ccncc1 the IC50 shift ([1]; WT strain) was -0.561, the IC50 shift ([1]; phoP- strain) was -25.9 and the IC50 [2] was 20 µM. The IC50 ([2]; WT polymyxin IC50 at 150 uM) was 0.669 µM and the IC50 ([2]; phoP- polymyxin IC50 at 150 uM) was 28.8 µM.
With Cc1ccc(Nc2cc(C)c3c(O)cccc3n2)cc1C the polymyxin IC50 shift difference (WT - phoP-) [1] was 0.62 (inactive), the IC50 shift ([1]; WT strain) was 2.64 and the IC50 shift ([1]; phoP- strain) was 2.02. It also gave an IC50 ([2]; phoP- polymyxin IC50 at 150 uM) of 0.893 µM.
